# In patent US9326451B1, “Seed pillow for overcoming the limiting factors controlling rangeland reseeding success” (The United States of America, as represented by the …, priority 2012, dated 2016):
# Columns and labels:
# cheatgrass = experiment: Example 5: cheatgrass control by imazapic, pot study; format: in vivo, Bromus tectorum; conditions: 8 oz/acre, pre-emergent spray after planting
# Excerpt: (§1) The following example illustrates the ability of seed pillows to protect seeds from soil-active herbicide and use of beneficial biostimulants and super-absorbent polymer. In the study, treatments included untreated seed and four seed pillow treatments, including seed incorporated into a pillow containing 1) activated carbon, 2) activated carbon plus biostimulants, 3) activated carbon plus super-absorbent polymer, and 4) activated carbon plus biostimulants and super-absorbent polymer. Pellets were extruded and cut into 3 mm thick hexagon pellets that were 13 mm in diameter, with each pillow containing eight pure live seeds.
# (§2) Bluebunch wheatgrass and cheatgrass were sown in 14×14 cm pots at 500 pure live seeds m-2, and 1000 seeds m-2, respectively. After planting, half of the pots in the study were sprayed with 8 oz/acre of the pre-emergent herbicide imazapic, or left unsprayed. The study was arranged in a randomized block design with 8 replicates per treatment.
# bluebunch wheatgrass [1] = system: bluebunch wheatgrass; set-up: species or system Pseudoroegneria spicata; conditions: in vivo
# Excerpt: as §1, §2
# bluebunch wheatgrass [2] = system: bluebunch wheatgrass; set-up: species or system Pseudoroegneria spicata; conditions: in vivo; remark: listed apart in the source
# Excerpt: (§3) In this study, bluebunch wheatgrass was either left untreated, coated with activated carbon, or incorporated into a seed-pillow containing activated carbon. Source of activated carbon used in the study was Nuchar® powdered activated carbon (MWV, Richmond, Va.). Seeds were coated with activated carbon according to U.S. Patent application 2010/0093535. Seed pillows were formed by mixing dough containing by weight 22% activated carbon, 18.6% diatomaceous earth, 57.9% SELVOL-205 solution with 1% solids, and 1.2% seed. Pellets were extruded and cut into 3 mm thick hexagon pellets that were 13 mm in diameter, with each pillow containing eight pure live seeds.
# (§4) Bluebunch wheatgrass and cheatgrass were sown in 14×14 cm pots at 500 pure live seeds m-2, and 1000 seeds m-2, respectively. After planting, pots were sprayed with 4, 6, 8, or 12 oz/acre of the pre-emergent herbicide imazapic, or left unsprayed. The study was arranged in a randomized block design with 8 replicates per treatment.
# [3] = system: 'Anatone' bluebunch wheatgrass; conditions: in vivo
# Protocol: (§5) Soil was obtained from a Wyoming big sagebrush (Artemisia tridentata Nutt. ssp. wyomingensis [Beetle & A. Young] S. L. Welsh)-steppe community type, located at the Northern Great Basin Experimental Range, 16-km southwest of Riley, Oreg. (43° 32′N, 118° 9′ W). Soil on the site has a silt-loam texture and is classified as a fine-loamy, mixed, frigid Aridic Haploxeroll (Soil Survey Staff 2012). Soil was excavated from a maximum depth of 25-cm, with the top 2-cm of soil and litter discarded to remove existing seeds. Excavated soil was used to fill square 14-cm wide by 14-cm deep growing pots that were placed in a grow-room at the Eastern Oregon Agriculture Research Center, located in Burns, Oreg., USA.
# Species used in the study included the native bunchgrass ‘Anatone’ bluebunch wheatgrass and the non-native annual weed downy brome. Bluebunch wheatgrass was chosen because it is often a major component of native plant communities in the sage-steppe ecosystem of western North America, is commonly used in rangeland seeding efforts (see e.g., Ogle et al. 2010 Plant guide for bluebunch wheatgrass (Pseudoroegneria spicata). USDA-Natural Resources Conservation Service. Idaho and Washington Plant Materials Program. 5 p). […]
# downy brome = experiment: Example 6: downy brome control by imazapic, grow-room pot study; format: in vivo
# Protocol: as §5
# Species used in the study included the native bunchgrass ‘Anatone’ bluebunch wheatgrass and the non-native annual weed downy brome. Bluebunch wheatgrass was chosen because it is often a major component of native plant communities in the sage-steppe ecosystem of western North America, is commonly used in rangeland seeding efforts (see e.g., Ogle et al. 2010 Plant guide for bluebunch wheatgrass (Pseudoroegneria spicata). USDA-Natural Resources Conservation Service. Idaho and Washington Plant Materials Program. 5 p). Like many grasses used for restoration, bluebunch wheatgrass is injured by imazapic applied at rates required for downy brome control (see e.g., Shinn and Thill 2004 Weed Technology 18:60-65). Germination potential of bluebunch wheatgrass and downy brome was 92% and 98%, respectively (as tested on blue blotter paper in 130-mm diameter petri dishes, with 25 seeds·dish−1 replicated four times per species).
# Bluebunch wheatgrass seeds were untreated, coated with activated carbon, or incorporated into HPPs containing activated carbon. Pots with the sown seeds were sprayed with 0, 70, 105, 140, or 210 g acid equivalent (ae)·ha−1 (0, 4, 6, 8, or 12 oz·acre−1) of the pre-emergent herbicide imazapic (Panoramic 2SL, Alligare LLC, Opelika, Ala.), (3 seed treatments×5 herbicide application rates=15 experimental treatments). The study was arranged in a randomized complete block design with 8 replicates per treatment.
# Each pot was seeded with 20 PLS (1000 PLS·m−2) of downy brome, and 10 PLS (500 PLS·m−2) of bluebunch wheatgrass. Two pods were added to each pot designated to receive HPPs. […] Response variables recorded at the conclusion of the study included: 1) plant density, 2) shoot height, and 3) oven dried (65° C. for 72-hrs) aboveground biomass.
# Bluebunch wheatgrass and downy brome response data were analyzed separately in SAS (Version 9.3; SAS Institute, Cary, N.C.) using a two-way randomized complete block analysis of variance (ANOVA; Proc Mixed). […] Significance was determined at P<0.05.
# [4] = system: cheatgrass (Bromus tectorum L.); experiment: Example 4: cheatgrass control by imazapic, pot study; format: in vivo
# Excerpt: as §3, §4
# [5] = averaged across the study, 47 days
smiles,measurement,setting,value
Cc1cnc(C2=NC(=O)C(C)(C(C)C)N2)c(C(=O)O)c1 (centres unmarked) [imazapic],control of cheatgrass growth,cheatgrass,effectively controlled
same,effect on non-treated bluebunch wheatgrass seed,bluebunch wheatgrass [1],effectively controlled
same,"bluebunch wheatgrass growth, untreated seed (FIG. 3B)",bluebunch wheatgrass [2],growth was arrested
same,effect on untreated bluebunch wheatgrass,[3],impaired
same,control of downy brome,"downy brome; all application rates (70, 105, 140, 210 g ae·ha−1)",effectively controlled
same,reduction of downy brome biomass,downy brome; [5],140.2 fold
same,reduction of downy brome density,downy brome; [5],6.6 fold
same,reduction of downy brome height,downy brome; [5],8.0 fold
same,control of cheatgrass growth,"[4]; all application rates (4, 6, 8, 12 oz/acre)",effectively controlled
same,cheatgrass growth (FIG. 3C),"[4]; imazapic at 8 oz/acre, bluebunch seed in activated carbon pillow",suppressed
same,cheatgrass growth (FIG. 3B),[4]; soil treated at 10 oz/acre,growth was arrested
